Experimental data from article PMC12299506, “Flipping the Target: Evaluating Natural LDHA Inhibitors for Selective LDHB Modulation” (Molecules, 2025).
Blank lines part the entries; values can stand above or below the compound they belong to.

Key:
LDHB [1] = molecular target: T1, LDHB (Homo sapiens, UniProt P07195); experiment: LDHB activity assay, 96-well endpoint colorimetric (lactate to pyruvate, NADH/NBT/PMS formazan, 570 nm); format: biochemical; settings: for IC50: dose-response, nonlinear regression
T1 construct: purchased R&D Systems (Minneapolis, MN, USA) 9205-HB
Text: This assay is based on the detection of NADH generated during the enzymatic conversion of lactate to pyruvate (via reduction of NAD^+), which subsequently reacts with nitro blue tetrazolium (NBT) in the presence of phenazine methosulfate (PMS). This reaction produces a blue-purple formazan dye with a maximum absorbance at approximately 570 nm.
Unless otherwise specified, all chemicals were obtained from Sigma-Aldrich (St. Louis, MO, USA). Recombinant human LDHB (Catalog #: 9205-HB) was purchased from R&D Systems (Minneapolis, MN, USA). […] AXKO-0046 (Catalog #: HY-147216A) was obtained from MedChemExpress (Monmouth Junction, NJ, USA).
This assay quantifies LDHB activity by measuring NADH generation resulting from the conversion of lactate to pyruvate, a reaction catalyzed by LDHB. The produced NADH reacts with nitro blue tetrazolium (NBT) in the presence of phenazine methosulfate (PMS), generating a blue-purple formazan dye detectable at approximately 570 nm.
The reaction was performed in a buffer containing 50 mM CHES (pH 9.6), 150 mM NaCl, 300 μM NBT, 30 μM PMS, and 0.13% gelatin (used to prevent formazan precipitation). Each well was loaded with 90 μL of the reaction buffer followed by 25 μL of a substrate solution comprising 10 mM NAD^+ and 250 mM sodium lactate in the same buffer. Next, 5 μL of the test compound at varying concentrations was added; the buffer alone was used in the control wells. The plates were incubated for 30 s at 25 °C in the dark before measuring the initial absorbance at 570 nm (Ainitial) using a microplate reader (PerkinElmer, Waltham, MA, USA). The reaction was initiated by adding 2 μL of 7.5 μM LDHB. After a 5 min incubation with continuous shaking, a second absorbance measurement (Afinal) was taken.
The difference in absorbance (ΔA570 = Afinal − Ainitial) was used to calculate the amount of NADH produced by referencing a standard curve (0–15 nmol NADH). Readings were corrected for background using a blank lacking LDHB. One unit of enzyme activity was defined as the amount of enzyme producing 1 μmol of NADH per minute at 25 °C. LDHB activity (mU/mL) was calculated using the following Equation (1):(1) LDH activity(mU/mL)=[NADH](nmol)/Tfinal−Tinitial(min)×V(mL)=nmol/min×mL where [NADH] is the amount (in nmol) of NADH that is released between Tfinal and Tinitial, and V is the sample volume (LDHB in mL) added in each well of the 96-well plate.
IC50 values for each compound were calculated using GraphPad Prism v8.0.2 (GraphPad Software Inc., San Diego, CA, USA) by fitting dose–response curves to the enzymatic activity data via nonlinear regression analysis. All the measurements were performed in triplicate.

LDHA [2] = test system: LDHA; set-up: method as in PMID 34571279; settings: EMMA; cited from earlier work
LDHA [3] = test system: LDHA; set-up: method as in PMID 39054614; settings: enzymatic assays; cited from earlier work
LDHB [4] = molecular target: T1, LDHB; experiment: LDHB kinetic studies (substrate competition, Michaelis-Menten, mixed-model inhibition); format: biochemical; settings: for mechanism of LDHB inhibition: Michaelis-Menten analysis, vs lactate and NAD+; for Vmax, NAD+: NAD+ varied, 25 mM sodium lactate; for Vmax, lactate: lactate varied, NAD+ 1 mM; for Ki / α (alpha factor, mechanism of inhibition): mixed-model inhibition fit; for α (alpha factor, mechanism of inhibition): α < 1 uncompetitive
Protocol: These kinetic studies followed the classical Michaelis–Menten framework. For NAD^+ titration, assays were performed using eight NAD^+ concentrations (120, 240, 360, 480, 700, 900, 1000, and 1200 μM) in the presence of 25 mM sodium lactate. For lactate titration, eight lactate concentrations (2.5, 5, 10, 15, 20, 25, 37.5, and 50 mM) were evaluated with a fixed NAD^+ concentration of 1 mM. Each reaction was carried out with 2.5 nM LDHB and increasing concentrations of either inhibitor (5–100 μM), followed by incubation at room temperature for 6.5 min. Initial reaction velocities were determined and fitted to a nonlinear Michaelis–Menten model to extract apparent kinetic parameters (Km and Vmax) using GraphPad Prism v8.0.2 (GraphPad Software Inc., San Diego, CA, USA). Lineweaver–Burk plots (1/V vs. 1/[S]) were also generated to visualize shifts in enzyme kinetics. To complement these analyses, the data were further examined using a mixed-model inhibition approach within GraphPad Prism. This model, which avoids the distortions associated with reciprocal transformations, evaluates inhibition kinetics using polynomial regression and is governed by the following equations [70]. The mixed-model fit is described by Equations (2)–(4), and contains competitive, uncompetitive, and noncompetitive inhibition terms:(2) Vmaxapp=Vmax/(1+I/a·Ki) (3) Kmapp=Km·(1+I/Ki)/(1+I/a·Ki) (4) Y=Vmaxapp·X/(Kmapp+X)
In the above equations, Vmaxapp and Kmapp are the maximum enzyme activity and Michaelis–Menten constant, respectively, in the presence of an inhibitor; Vmax and Km represent the maximum enzyme velocity and Michaelis–Menten constant, respectively, in the absence of an inhibitor; and Ki is the inhibition constant. In addition, X is the substrate concentration, Y is the enzyme activity, I is the inhibitor concentration, and alpha (α) is a coefficient that defines the mechanism of inhibition.

LDHB [5] = molecular target: T1, LDHB; experiment: Effect of pre-incubation time on LDHB inhibition; format: biochemical; settings: pre-incubation with LDHB for 120 min, compound 50 µM
Protocol: Supplementary Figure S2. The eﬀect of pre-incubation time on the inhibitory activity of […]
Each compound (50 µΜ) was incubated with […] of LDHB in a 10 µL reaction within a 96-well plate for varying times. The reaction was carried out in 80 µL of 50 mM CHES buﬀer (pH 9.6) containing 150 mM NaCl, 300 µΜ NBT, 30 µΜ PMS, and 0.13% gelatin, with 10 µL of substrate mix (10 mM NAD+ and 250 mM sodium lactate) added to initiate the reaction. LDHB activity was measured as described in the text, with control wells lacking inhibitors. Statistical signiﬁcance was determined using one way ANONA (p < 0.05), with ʹn.s.ʹ indicating non- […]
(1 picture or pasted object on this page, not shown here)

LDHA [6] = settings: cited from earlier work
LDHC = settings: cited from earlier work

T1 sequence (P07195 whole entry): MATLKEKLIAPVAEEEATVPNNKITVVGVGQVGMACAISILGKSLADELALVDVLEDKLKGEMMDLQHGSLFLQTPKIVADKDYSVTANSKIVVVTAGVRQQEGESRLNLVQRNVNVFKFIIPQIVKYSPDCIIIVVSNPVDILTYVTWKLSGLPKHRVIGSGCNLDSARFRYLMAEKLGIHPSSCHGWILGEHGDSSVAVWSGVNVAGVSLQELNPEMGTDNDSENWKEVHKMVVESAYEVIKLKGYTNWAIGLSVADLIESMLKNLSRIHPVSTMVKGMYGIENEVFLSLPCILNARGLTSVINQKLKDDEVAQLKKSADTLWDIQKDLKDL

- inhibition at 50 µM (LDHB [1]; compound at 50 µM): ~75%
- IC50 (LDHB [1]): 0.00556 µM
SMILES: c1ccc(CNCCc2c(CNC3CCCCCC3)[nH]c3ccccc23)cc1 [AXKO-0046, reference compound]

SMILES: CC[C@@]1(O)C(=O)OCc2c1cc1n(c2=O)Cc2cc3ccccc3nc2-1 [Camptothecin]
- inhibition of LDHB activity (LDHB [1]; compound at 50 µM): minimal inhibition
- inhibition rate of LDHA activity (LDHA [2]): no inhibitory effect

- inhibition at 50 µM (LDHB [1]; compound at 50 µM): ~22%
SMILES: O=c1c(O)c(-c2ccc(O)c(O)c2)oc2cc(O)ccc12 [Fisetin]
- IC50 (LDHA [3]): 0.066 µM

SMILES: O=c1cc(-c2ccc(O)c(O)c2)oc2cc(O)cc(O)c12 [Luteolin]
- inhibition at 50 µM (LDHB [1]; compound at 50 µM): ~55%
- IC50 (LDHB [1]): 32.2 µM
- mechanism of LDHB inhibition (LDHB [4]): uncompetitive inhibition
- Vmax, NAD+ (LDHB [4]; inhibitor 10 μM): 945 ± 27 mU/mL
- Vmax, NAD+ (LDHB [4]; inhibitor 20 μM): 868 ± 35 mU/mL
- Vmax, NAD+ (LDHB [4]; inhibitor 30 μM): 774 ± 32 mU/mL
- Vmax, NAD+ (LDHB [4]; inhibitor 40 μM): 664 ± 40 mU/mL
- Vmax, NAD+ (LDHB [4]; inhibitor 50 μM): 563 ± 29 mU/mL
- Vmax, NAD+ (LDHB [4]; inhibitor 75 μM): 456 ± 27 mU/mL
- Vmax, NAD+ (LDHB [4]; inhibitor 100 μM): 417 ± 22 mU/mL
- Vmax, lactate (LDHB [4]; inhibitor 10 μM): 942 ± 31 mU/mL
- Vmax, lactate (LDHB [4]; inhibitor 20 μM): 888 ± 16 mU/mL
- Vmax, lactate (LDHB [4]; inhibitor 30 μM): 832 ± 21 mU/mL
- Vmax, lactate (LDHB [4]; inhibitor 40 μM): 749.2 ± 17 mU/mL
- Vmax, lactate (LDHB [4]; inhibitor 50 μM): 624 ± 24 mU/mL
- Vmax, lactate (LDHB [4]; inhibitor 75 μM): 506 ± 15 mU/mL
- Vmax, lactate (LDHB [4]; inhibitor 100 μM): 406 ± 22 mU/mL
- Ki (LDHB [4]; with NAD+): 194 µM
- α (alpha factor, mechanism of inhibition) (LDHB [4]; with NAD+): 0.34
- Ki (LDHB [4]; with lactate): 349 µM
- α (alpha factor, mechanism of inhibition) (LDHB [4]; with lactate): 0.21
- change of inhibitory effect with longer pre-incubation time (LDHB [5]): did not increase
- inhibition rate of LDHA activity (LDHA [2]): 50.7%
- IC50 (LDHA [3]): 1.79 µM

SMILES: O=c1c(O)c(-c2ccc(O)c(O)c2)oc2cc(O)cc(O)c12 [Quercetin]
- inhibition at 50 µM (LDHB [1]; compound at 50 µM): ~50%
- IC50 (LDHB [1]): 37.7 µM
- mechanism of LDHB inhibition (LDHB [4]): uncompetitive inhibition
- Vmax, NAD+ (LDHB [4]; inhibitor 10 μM): 952 ± 36 mU/mL
- Vmax, NAD+ (LDHB [4]; inhibitor 20 μM): 861 ± 22 mU/mL
- Vmax, NAD+ (LDHB [4]; inhibitor 30 μM): 761 ± 52 mU/mL
- Vmax, NAD+ (LDHB [4]; inhibitor 40 μM): 701 ± 44 mU/mL
- Vmax, NAD+ (LDHB [4]; inhibitor 50 μM): 605 ± 46 mU/mL
- Vmax, NAD+ (LDHB [4]; inhibitor 75 μM): 504 ± 44 mU/mL
- Vmax, NAD+ (LDHB [4]; inhibitor 100 μM): 454 ± 33 mU/mL
- Vmax, lactate (LDHB [4]; inhibitor 10 μM): 938 ± 29 mU/mL
- Vmax, lactate (LDHB [4]; inhibitor 20 μM): 881 ± 19 mU/mL
- Vmax, lactate (LDHB [4]; inhibitor 30 μM): 791 ± 37 mU/mL
- Vmax, lactate (LDHB [4]; inhibitor 40 μM): 689 ± 53 mU/mL
- Vmax, lactate (LDHB [4]; inhibitor 50 μM): 621 ± 23 mU/mL
- Vmax, lactate (LDHB [4]; inhibitor 75 μM): 557 ± 37 mU/mL
- Vmax, lactate (LDHB [4]; inhibitor 100 μM): 478 ± 26 mU/mL
- Ki (LDHB [4]; with NAD+): 539 µM
- α (alpha factor, mechanism of inhibition) (LDHB [4]; with NAD+): 0.14
- Ki (LDHB [4]; with lactate): 265 µM
- α (alpha factor, mechanism of inhibition) (LDHB [4]; with lactate): 0.31
- change of inhibitory effect with longer pre-incubation time (LDHB [5]): did not increase
- inhibition rate of LDHA activity (LDHA [2]): 53.6%
- IC50 (LDHA [3]): 33.6 µM

SMILES: Cc1cc2c(C(C)C)c(O)c(O)c(C=O)c2c(O)c1-c1c(C)cc2c(C(C)C)c(O)c(O)c(C=O)c2c1O [gossypol, Gossypol]
- Ki (LDHA [6]): 1.9 µM
- Ki (LDHC): 4.2 µM
